Source: patent US7199131B2, “Sulfonamide and sulfamide substituted imidazoquinolines” (3M Innovative Properties Company, priority 2001, dated 2007)
Structures can show the parent of a compound that is named as a salt.

What was measured:
interferon (α) = experiment: Cytokine Induction in Human Cells: interferon (α) secreted by PBMCs, ELISA; format: cell-based; details: incubated 18 to 24 hours, lowest concentration found to induce interferon
From the text: (§1) An in vitro human blood cell system was used to assess cytokine induction by compounds of the invention. Activity is based on the measurement of interferon and tumor necrosis factor (α) (IFN and TNF, respectively) secreted into culture media as described by Testerman et. al. In “Cytokine Induction by the Immunomodulators Imiquimod and S-27609”, Journal of Leukocyte Biology, 58, 365–372 (September, 1995).
(§2) Whole blood is collected by venipuncture into EDTA vacutainer tubes from healthy human donors. Peripheral blood mononuclear cells (PBMCs) are separated from whole blood by density gradient centrifugation using Histopaque®-1077 (Sigma Chemicals, St. Louis, Mo.). The PBMCs are suspended at 3–4×10^6 cells/mL in RPMI 1640 medium containing 10% fetal bovine serum, 2 mM L-glutamine and 1% penicillin/streptomycin solution (RPMI complete). The PBMC suspension is added to 48 well flat bottom sterile tissue culture plates (Costar, Cambridge, Mass. or Becton Dickinson Labware, Lincoln Park, N.J.) containing an equal volume of RPMI complete media containing test compound.
(§3) The compounds are solubilized in dimethyl sulfoxide (DMSO). The DMSO concentration should not exceed a final concentration of 1% for addition to the culture wells.
(§4) The solution of test compound is added at 60 μM to the first well containing RPMI complete and serial (three fold or ten fold) dilutions are made. The PBMC suspension is then added to the wells in an equal volume, bringing the test compound concentrations to the desired range. The final concentration of PBMC suspension is 1.5–2×10^6 cells/mL. The plates are covered with sterile plastic lids, mixed gently and then incubated for 18 to 24 hours at 37° C. in a 5% carbon dioxide atmosphere.
(§5) Following incubation the plates are centrifuged for 5–10 minutes at 1000 rpm (˜200×g) at 4° C. The cell culture supernatant is removed with a sterile polypropylene pipette and transferred to sterile polypropylene tubes. Samples are maintained at −30 to −70° C. until analysis. The samples are analyzed for interferon (α) and tumor necrosis factor (α) by ELISA
Interferon (α) concentration is determined by ELISA using a Human Multi-Species kit from PBL Biomedical Laboratories, New Brunswick, N.J.
(§6) The table below lists the lowest concentration found to induce interferon and the lowest concentration found to induce tumor necrosis factor for each compound.

[1] = system: tumor necrosis factor (α); experiment: Cytokine Induction in Human Cells: tumor necrosis factor (α) secreted by PBMCs, ELISA; format: cell-based; details: incubated 18 to 24 hours, lowest concentration found to induce tumor necrosis factor
From the text: as §1, §2, §3, §4, §5
Tumor necrosis factor (α) (TNF) concentration is determined using ELISA kits available from Genzyme, Cambridge, Mass.; R&D Systems, Minneapolis, Minn.; or Pharmingen, San Diego, Calif.
as §6

melting point | SMILES | minimal effective concentration (interferon (α); PBMC) | minimal effective concentration ([1]; PBMC) | also measured
84.8 to 85.4 °C | CCCCCCc1nc2c(N)nc3ccccc3c2n1CCCCNS(=O)(=O)c1ccccc1 [Example 234, N-[4-(4-amino-2-hexyl-1H-imidazo[4,5-c]quinolin-1-yl)butyl]benzenesulfonamide] | 1.11 µM | 1.11 µM | –
186.5 to 187.9 °C | CCCc1nc2c(N)nc3ccccc3c2n1CCCCNS(C)(=O)=O [Example 235, N-[4-(4-amino-2-propyl-1H-imidazo[4,5-c]quinolin-1-yl)butyl]methanesulfonamide] | 0.04 µM | 1.11 µM | –
229.4 to 230.5 °C | Cc1nc2c(N)nc3ccccc3c2n1CCCCNS(C)(=O)=O [Example 238, N-[4-(4-amino-2-methyl-1H-imidazo[4,5-c]quinolin-1-yl)butyl]methanesulfonanide] | 0.04 µM | 0.37 µM | –
239.2 to 240.8 °C | CCCCc1nc2c(N)nc3ccccc3c2n1CCCNS(C)(=O)=O [Example 239, N-[3-(4-amino-2-butyl-1H-imidazo[4,5-c]quinolin-1-yl)propyl]methanesulfonamide] | 0.01 µM | 1.11 µM | –
170.2 to 171.1 °C | CCCCCCc1nc2c(N)nc3ccccc3c2n1CCCCNS(C)(=O)=O [Example 241, N-[4-(4-amino-2-hexyl-1H-imidazo[4,5-c]quinolin-1-yl)butyl]methanesulfonamide] | 0.12 µM | 1.11 µM | –
109 to 110 °C | COCCc1nc2c(N)nc3ccccc3c2n1CCCCCCCCNS(C)(=O)=O [Example 243, N-{8-[4-amino-2-(2-methoxyethyl)-1H-imidazo[4,5-c]quinolin-1-yl]octyl}methanesulfonamide] | 0.01 µM | 0.01 µM | –
210.7 to 211.6 °C | CCS(=O)(=O)NCCCCn1c(C)nc2c(N)nc3ccccc3c21 [Example 269, N-[4-(4-amino-2-methyl-1H-imidazo[4,5-c]quinolin-1-yl)butyl]ethanesulfonamide] | – | – | –
199.7 to 200.7 °C | CS(=O)(=O)NCCCCn1c(CC2CC2)nc2c(N)nc3ccccc3c21 [Example 270, N-{4-[4-amino-2-(cyclopropylmethyl)-1H-imidazo[4,5-c]quinolin-1-yl]butyl}methanesulfonamide] | – | – | –

Further lines, the compound ahead of its results:

SMILES | melting point | minimal effective concentration (interferon (α); PBMC) | minimal effective concentration ([1]; PBMC) | also measured
CCCCc1nc2c(N)nc3ccccc3c2n1CCCCNS(=O)(=O)c1cccc([N+](=O)[O-])c1 [Example 7, N^1-[4-(4-Amino-2-butyl-1H-imidazo[4,5-c]quinolin-1-yl)butyl]-3-nitro-1-benzenesulfonamide Hydrochloride] | – | – | – | minimal effective concentration (interferon (α); Hydrochloride): 0.01 µM; Lowest Effective Concentration (μM) Tumor Necrosis Factor ([1]; Hydrochloride): ** (no induction was seen at any of the tested concentrations (0.12, 0.37, 1.11, 3.33, 10 and 30 μM))
CCCCc1nc2c(N)nc3ccccc3c2n1CCCCNS(=O)(=O)c1ccc([N+](=O)[O-])cc1 [Example 9, N^1-[4-(4-Amino-2-butyl-1H-imidazo[4,5-c]quinolin-1-yl)butyl]-4-nitro-1-benzenesulfonamide Hydrochloride] | – | – | – | minimal effective concentration (interferon (α); Hydrochloride): 0.04 µM; Lowest Effective Concentration (μM) Tumor Necrosis Factor ([1]; Hydrochloride): ** (no induction was seen at any of the tested concentrations (0.12, 0.37, 1.11, 3.33, 10 and 30 μM))
CCCCc1nc2c(N)nc3ccccc3c2n1CCNS(C)(=O)=O [Example 34, N-[2-(4-Amino-2-butyl-1H-imidazo[4,5-c]quinolin-1-yl)ethyl]methanesulfonamide Trifluoroacetate] | – | – | – | minimal effective concentration (interferon (α)): 0.04 µM; minimal effective concentration [1]: 0.37 µM
CCCCc1nc2c(N)nc3ccccc3c2n1CCNS(=O)(=O)C(F)(F)F [Example 35, N-[2-(4-Amino-2-butyl-1H-imidazo[4,5-c]quinolin-1-yl)ethyl]trifluoromethanesulfonamide Trifluoroacetate] | – | – | – | minimal effective concentration (interferon (α)): 1.11 µM; minimal effective concentration [1]: 10 µM
CS(=O)(=O)NCCCCn1cnc2c(N)nc3c(c21)CCCC3 [Example 72, N-[4-(4-Amino-6,7,8,9-tetrahydro-1H-imidazo[4,5-c]quinolin-1-yl)butyl]methanesulfonamide Trifluoroacetate] | – | – | – | minimal effective concentration (interferon (α)): 3.33 µM; Lowest Effective Concentration (μM) Tumor Necrosis Factor [1]: ** (no induction was seen at any of the tested concentrations (0.12, 0.37, 1.11, 3.33, 10 and 30 μM))
CCCCc1nc2c(N)nc3ccccc3c2n1CCCCNS(=O)(=O)C[C@@]12CC[C@@H](CC1=O)C2(C)C [Example 89] | – | 0.001 µM | 1 µM | –
COCCc1nc2c(N)nc3c(c2n1CCCCNS(C)(=O)=O)CCCC3 [Example 214, N-[4-(4-Amino-6,7,8,9-tetrahydro-2-(2-methoxyethyl)-1H-imidazo[4,5-c]quinolin-1-yl)butyl]methanesulfonamide Trifluoroacetate] | – | – | – | minimal effective concentration (interferon (α)): 0.01 µM; minimal effective concentration [1]: 10 µM
CCc1nc2c(N)nc3ccccc3c2n1CCCCNS(=O)(=O)c1ccccc1 [Example 232, N-[4-(4-amino-2-ethyl-1H-imidazo[4,5-c]quinolin-1-yl)butyl]benzenesulfonamide] | 180.6 to 182 °C | 0.12 µM | 1.11 µM | –
CCCc1nc2c(N)nc3ccccc3c2n1CCCCNS(=O)(=O)c1ccccc1 [Example 233, N-[4-(4-amino-2-propyl-1H-imidazo[4,5-c]quinolin-1-yl)butyl]benzenesulfonamide] | 158.8 to 160.8 °C | 0.37 µM | 1.11 µM | –
CCc1nc2c(N)nc3ccccc3c2n1CCCCNS(C)(=O)=O [Example 236, N-[4-(4-amino-2-ethyl-1H-imidazo[4,5-c]quinolin-1-yl)butyl]methanesulfonamide] | – | 0.01 µM | 0.12 µM | –
Cc1nc2c(N)nc3ccccc3c2n1CCCCNS(=O)(=O)c1ccccc1 [Example 237, N-[4-(4-amino-2-methyl-1H-imidazo[4,5-c]quinolin-1-yl)butyl]benzenesulfonamide] | 215.4 to 216 °C | 0.37 µM | 0.04 µM | –
CCCCc1nc2c(N)nc3ccccc3c2n1CCCNS(=O)(=O)c1ccccc1 [Example 240, N-[3-(4-amino-2-butyl-1H-imidazo[4,5-c]quinolin-1-yl)propyl]benzenesulfonamide] | 210.5 to 212 °C | 0.37 µM | 3.33 µM | –
COCCc1nc2c(N)nc3ccccc3c2n1CCCCCCCCNS(=O)(=O)c1ccccc1 [Example 242, N-{8-[4-amino-2-(2-methoxyethyl)-1H-imidazo[4,5-c]quinolin-1-yl]octyl}benzenesulfonamide] | 146 to 149 °C | 0.01 µM | 0.01 µM | –
CCCCCc1nc2c(N)nc3ccccc3c2n1CCCCNS(C)(=O)=O [Example 250, N-[4-(4-amino-2-pentyl-1H-imidazo[4,5-c]quinolin-1-yl)butyl]methanesulfonamide] | – | 0.01 µM | 0.12 µM | –
CCCCCc1nc2c(N)nc3ccccc3c2n1CCCCNS(=O)(=O)c1ccccc1 [Example 251, N-[4-(4-amino-2-pentyl-1H-imidazo[4,5-c]quinolin-1-yl)butyl]benzenesulfonamide] | – | 0.12 µM | 10 µM | –
Cc1nc2c(N)nc3c(c2n1CCCCNS(C)(=O)=O)CCCC3 [Example 263, N-[4-(4-amino-2-methyl-6,7,8,9-tetrahydro-1H-imidazo[4,5-c]quinolin-1-yl)butyl]methanesulfonamide hydrochloride] | – | 0.12 µM | > 30 µM | –
COCCc1nc2c(N)nc3ccccc3c2n1CCCCN1CCCS1(=O)=O [Example 266, 1-[4-(1,1-dioxidoisothiazolidin-2-yl)butyl]-2-(2-methoxyethyl)-1H-imidazo[4,5-c]quinolin-4-amine] | 156.4 to 157.7 °C | – | – | –
